In this assay the target is T1, 3-dehydroquinate synthase (Escherichia coli (strain K12), UniProt P07639).
T1 sequence (P07639 whole entry): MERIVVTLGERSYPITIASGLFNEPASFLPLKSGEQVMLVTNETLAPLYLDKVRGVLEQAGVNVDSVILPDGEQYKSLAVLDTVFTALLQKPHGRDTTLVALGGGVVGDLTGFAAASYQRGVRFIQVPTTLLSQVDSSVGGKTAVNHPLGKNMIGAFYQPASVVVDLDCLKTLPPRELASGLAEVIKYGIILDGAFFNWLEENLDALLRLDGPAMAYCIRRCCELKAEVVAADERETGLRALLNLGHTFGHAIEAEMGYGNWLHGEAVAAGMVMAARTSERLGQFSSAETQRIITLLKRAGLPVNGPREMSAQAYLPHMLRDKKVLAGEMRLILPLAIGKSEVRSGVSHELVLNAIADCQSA
Kind of assay: Enzyme Inhibition. An excerpt: Enzyme inhibition using dehydroquinate synthase.

For the compound `O=C(O)C1(O)CC(O)C(O)C(CP(=O)(O)O)O1` (configuration not stated) [2,4,5-trihydroxy-6-(phosphonatomethyl)oxane-2-carboxylate, 4], the Ki amounted to 0.12 µM.

Turning to `O=C(O)C1CC(O)C(O)C(CP(=O)(O)O)O1` (configuration not stated) [4,5-dihydroxy-6-(phosphonatomethyl)oxane-2-carboxylate, 3], the Ki was found to be 35 µM.

For the origin of these results see BindingDB's records for doi:10.1021/bi00445a011 (Harvard University, 1989).
